Assay [1] can be described thus: P. falciparum late gametocyte killing, dose response, luminescence (AID 1117278).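 Further: gametocytes exposed to compound for 24 hours.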 In kind it is functional, cell-based.
A short description of assay [2]: Jurkat T cell cytotoxicity, dose response, cytotoxicity control for P. falciparum gametocyte viability project, luminescence (AID 1117277).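 Further: potency reflects loss of cellular ATP meaning fewer viable cells.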 It is filed as functional, cell-based.
A short description of assay [3]: cytotoxicity in HPDE-C7 cells, cell-based, fluorescence, HTS (AID 430). It is filed as functional. The settings on record: Homo sapiens.
Assay [4] can be described thus: cytotoxicity in KRAS-transformed pancreatic duct cells, primary screen, cell-based, fluorescence, HTS (AID 431).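 Further: cell line used: HPDE-C7K.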 It is filed as functional. The conditions noted are these: Homo sapiens.
A short description of assay [5]: half-maximal inhibitory concentration for glucagon-like peptide-1 release, STC-1 cell line, dose-response (AID 1117345). It is filed as functional, cell-based.
In another assay the target is Cytochrome P450 2D6 (Homo sapiens, UniProt P10635).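 Further: CYP2D6 member of a cytochrome P450 panel assay.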
The nature of assay [6]: Glucagon-like peptide 1 release potency, NCI-H716 cell line, dose-response, half-maximal inhibitory concentration (AID 1117344). It is filed as functional, cell-based.
In another assay the target is T1, Cytochrome P450 1A2 (Homo sapiens, UniProt P05177).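 Further: PubChem cytochrome P450 panel assay, CYP1A2 panel member.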
T1 sequence (P05177 whole entry): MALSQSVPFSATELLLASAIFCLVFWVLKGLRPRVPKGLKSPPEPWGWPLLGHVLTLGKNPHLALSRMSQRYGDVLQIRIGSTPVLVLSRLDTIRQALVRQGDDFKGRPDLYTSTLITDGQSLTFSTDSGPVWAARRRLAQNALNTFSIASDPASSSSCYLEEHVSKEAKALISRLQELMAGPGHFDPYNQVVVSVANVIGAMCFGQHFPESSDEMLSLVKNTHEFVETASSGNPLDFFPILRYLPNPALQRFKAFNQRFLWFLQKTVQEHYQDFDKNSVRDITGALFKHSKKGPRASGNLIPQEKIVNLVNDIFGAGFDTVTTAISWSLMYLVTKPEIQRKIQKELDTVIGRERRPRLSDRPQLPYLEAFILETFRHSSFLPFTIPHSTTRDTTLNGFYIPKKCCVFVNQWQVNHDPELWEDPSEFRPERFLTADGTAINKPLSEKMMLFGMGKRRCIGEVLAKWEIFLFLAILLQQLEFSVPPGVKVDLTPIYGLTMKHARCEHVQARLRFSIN

Assay [7] in a line: YAP1 pathway inhibition via CTGF transcript levels, dose response, cell-based, DLD1 colon cancer, RT-qPCR, cherry-pick (AID 1053122). It is filed as functional. The conditions noted are these: Cancer cell lines.
A further assay relates to INS1. Kind of assay: beta cell apoptosis inhibitors, cytokine rescue, dose response, luminescence, retest (AID 449756).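 Further: cell death triggered by IL-1 beta plus TNF-alpha plus IFN-gamma mixture; protective hits raise ATP signal compared with cytokine alone wells.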 It is filed as functional, cell-based.
Assay [8] can be described thus: cytotoxicity in HEK-293T cells, dose response, cytotoxicity control for BCR NF-kB inhibitor project, luminescence, B-cell screen hits (AID 489021).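 Further: HEK-293T cells carrying an NF-kB luciferase reporter; cells exposed to compound for about 14 hours before viability readout.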 In kind it is functional, cell-based.
Assay [9] in a line: C. albicans growth with fluconazole, confirmation, fluorescence, retest (AID 2467). It is filed as functional, cell-based.
Assay [10] can be described thus: NIH-3T3 fibroblast cytotoxicity, dose response, cytotoxicity control, cell-based, fluorescence, Alamar Blue, secondary assay (AID 2327).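 Further: NIH-3T3 mouse fibroblasts cultured with fluconazole at 8 µg/mL.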 In kind it is functional. For orientation: Resazurin is reduced to fluorescent resorufin, in cell work by metabolically active cells.
Assay [11] deals with COUP transcription factor 2 (Homo sapiens, UniProt P24468). Kind of assay: Luminescence-based cell-based high throughput dose response assay to identify inhibitors of COUP-TFII (NR2F2). In kind it is functional.
For another assay, the target named is Prothrombin (Homo sapiens, UniProt P00734). The experiment in a line: Thrombin 1536 HTS Dose Response Confirmation. [Related pubchem assays: 1046 (Thrombin 1536 HTS; hits were confirmed in this assay)]. It is filed as functional.

Activity calls are given as the source filed them. Some results are limits rather than exact numbers.

Here are results for seven molecules from ChEMBL document CHEMBL1201862, “PubChem BioAssay data set” (2004).

In general, IC50 refers to the point on the concentration scale where inhibition reaches its midpoint. In general, EC50 refers to the concentration that produces a half-maximal response. One may read the AC50 as the concentration giving half of the maximal activity seen.

Sequence of COUP transcription factor 2 (P24468 whole entry): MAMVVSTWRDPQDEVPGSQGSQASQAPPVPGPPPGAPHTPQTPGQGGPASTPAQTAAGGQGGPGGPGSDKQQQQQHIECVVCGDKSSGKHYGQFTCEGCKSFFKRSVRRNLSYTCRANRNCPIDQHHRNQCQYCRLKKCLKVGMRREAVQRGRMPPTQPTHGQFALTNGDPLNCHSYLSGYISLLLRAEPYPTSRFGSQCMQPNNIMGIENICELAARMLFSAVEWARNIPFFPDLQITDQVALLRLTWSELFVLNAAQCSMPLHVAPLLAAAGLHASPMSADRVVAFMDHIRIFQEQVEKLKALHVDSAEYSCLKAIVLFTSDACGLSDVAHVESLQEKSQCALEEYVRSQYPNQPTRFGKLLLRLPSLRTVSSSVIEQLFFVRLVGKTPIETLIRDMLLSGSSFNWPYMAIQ
Sequence of Cytochrome P450 2D6 (P10635 whole entry): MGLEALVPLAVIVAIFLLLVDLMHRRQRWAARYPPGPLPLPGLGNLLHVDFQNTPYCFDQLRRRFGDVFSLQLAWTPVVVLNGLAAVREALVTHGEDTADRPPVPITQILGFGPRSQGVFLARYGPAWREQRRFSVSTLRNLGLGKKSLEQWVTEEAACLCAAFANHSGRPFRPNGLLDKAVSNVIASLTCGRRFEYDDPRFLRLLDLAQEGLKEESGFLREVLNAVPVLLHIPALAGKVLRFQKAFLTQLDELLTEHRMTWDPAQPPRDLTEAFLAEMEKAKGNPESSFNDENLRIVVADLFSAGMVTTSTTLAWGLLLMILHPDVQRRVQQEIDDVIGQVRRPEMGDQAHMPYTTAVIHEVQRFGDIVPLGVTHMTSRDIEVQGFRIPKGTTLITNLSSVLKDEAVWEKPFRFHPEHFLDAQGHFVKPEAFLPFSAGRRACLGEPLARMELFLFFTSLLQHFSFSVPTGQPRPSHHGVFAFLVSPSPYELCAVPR

Regarding `COC(=O)c1cc(NC(=O)c2ccc(-c3ccccc3)cc2)ccc1Cl`, the IC50 in [1] is > 109 µM (inactive); in assay [2], > 83.3 µM (inactive).

`Cc1ccc(S(=O)(=O)NCC(=O)N(CC(=O)NC2CCCC2)c2ccc3c(c2)OCCO3)cc1`: the IC50 in assay [1] is > 109 µM (inactive); in [2], > 83.3 µM (inactive).

`Cc1cc(C)nc(NCC(O)CNc2ccccc2Cl)n1` (stereo not drawn): the EC50 in assay [3] and in assay [4] was > 20 µM (not active) each time.

`Cc1c(NC(C)C)c(=O)n(-c2ccccc2)n1C` [RAMIFENAZONE]: the IC50 in assay [5] and in [6] was > 40 µM (inactive) in each case. For the same molecule, the AC50 was 12.6 µM (inconclusive) on Cytochrome P450 2D6 and 0.0398 µM (inconclusive) at Cytochrome P450 1A2.

`COc1ccc(NC(=O)N2CCCCN3[C@@H](CO)[C@H](c4ccc(-c5ccccc5F)cc4)[C@@H]3C2)cc1`: the AC50 in [7] is 2.72 µM (active).

As to `Cc1ccc(-c2c[n+](-c3ccccc3)c3n2CCCS3)cc1`, the AC50 with INS1 (Rattus norvegicus, INS1) was 2.26 µM (active); in the assay on INS1 (ins1), 1.92 µM (active). Also, the IC50 in assay [8] is > 80 µM (inactive); in [11] it was 17.4 µM (inactive). Moreover, the EC50 in [9] was 0.709 µM (active); in assay [10], 50.9 µM (active).

With `O=C(O)Cc1ccccc1C(=O)O` [2-CARBOXYBENZENEACETIC ACID], the IC50 at Prothrombin is > 50 µM (not active).
